Measured values: article PMC12040169 (PLOS Biology, 2025)

Experiment: in vitro
Conditions: human, hela cells, % viability

Row | Compound | viability at 28.5 h, 10 µM
1 | Fc1ccc(OCCNCCC2NCCc3c2[nH]c2ccccc32)cc1 (stereo not drawn) [CBK066970] | 97.6%
2 | c1ccc(CN2CCN(Cc3ccccc3)C2c2ccco2)cc1 [CBK260888] | 99.6%
3 | COC(=O)c1c(NC(=O)C(Cc2ccccc2)N2C(=O)c3ccccc3C2=O)sc2c1CCC2 (stereo not drawn) [CBK265744] | 96.1%
4 | Cn1ccnc1CN1C[C@@H]2CN(C(=O)C3CCCC3)C[C@]2(C(=O)O)C1 [CBK307201] | 102%
5 | Cc1cccc(C(=O)N2CCCCC2CN(C)C)c1 (stereo not drawn) [CBK074171] | 81.7%
6 | O=C(c1cccc([N+](=O)[O-])c1)N1CCN(S(=O)(=O)N2CCOCC2)CC1 [CBK267469] | 100%
7 | CC1CCc2nc(NC(=O)Cn3cccc(C(=O)Nc4ccc(F)cc4)c3=O)sc2C1 (stereo not drawn) [CBK286063] | 95.5%
8 | N#Cc1ccc(CNC2(Cc3cc(CO)on3)COC2)cc1 [CBK289647] | 104%
9 | Cc1cc(C(=O)Cn2nc(C(=O)O)c3ccccc3c2=O)c(C)n1Cc1ccccc1Cl [CBK297504] | 111%
10 | c1ccc(SCc2csc(-c3ccc4c(c3)OCO4)n2)nc1 [CBK270294] | 87.7%
11 | O=C(CSc1nnc(-c2ccco2)n1Cc1ccco1)c1ccc(-c2ccccc2)cc1 [CBK267555] | 91.1%
12 | Cc1cc(C)nc(Nc2ccc(C3CCCN(C(=O)c4c(C)oc5c4CCCC5)C3)nc2)n1 (stereo not drawn) [CBK285988] | 109%
13 | Cc1cc(C)nc(SCC(=O)Nc2ccc(S(=O)(=O)NC3CCCCC3)cc2)n1 [CBK268299] | 86%
14 | CN1CCN(c2cncc(-c3ccccc3CO)n2)CC1 [CBK065302] | 91.8%
15 | Oc1ccc(-c2n[nH]cc2-c2cnn(-c3ccccc3)c2)c(O)c1O [CBK266948] | 104%
16 | O=C(Nc1ccc(F)cc1)c1c(NS(=O)(=O)Cc2ccccc2[N+](=O)[O-])sc2c1CCCC2 [CBK028654] | 85.3%
17 | Cc1ccc(C(=O)NCCCN2CCC3(CC2)OCCc2c3[nH]c3ccccc23)cc1 [CBK113485] | 85.5%
18 | COC(=O)[C@H]1CN(C(=O)c2ccncc2)C[C@@H]1c1ccc(F)cc1 [CBK283509] | 94.2%
19 | Cc1cc(N2CCN(c3ccccc3)CC2)nc(-c2ccccc2O)n1 [CBK116405] | 92.1%
20 | CC1CNCCN1C(=O)c1ccnc(N2CCN(C)CC2)c1 (stereo not drawn) [CBK304122] | 88.6%
21 | CCCOc1ccc(C2(CCCCN3CCCC3)C(=O)Oc3ccc(C(C)(C)C)cc32)cc1 (stereo not drawn) [CBK017655C] | 99.1%
22 | Cc1nnc2sc(-c3ccccc3NC(=S)NC(=O)c3cc4ccccc4o3)nn12 [CBK268845] | 103%

Row | Compound | viability at 28.5 h, 10 µM
23 | CS(=O)(=O)Nc1cc2ccccc2c(-c2ccc3c(c2)CCO3)n1 [CBK073773] | 90.5%
24 | Cn1nc2c(cc1=O)CN(C(=O)c1cnc(C(C)(C)C)nc1)CC2 [CBK304293] | 96.5%
25 | CCCn1c(SC(C)C(=O)c2cc(C)n(-c3ccc(Cl)cc3)c2C)n[nH]c1=O (stereo not drawn) [CBK295595] | 86.2%
26 | Cc1c(C(=O)O)sc(S(=O)(=O)N2CCN(C(=O)Cc3ccsc3)CC2)c1C(=O)O [CBK297134] | 89.8%
27 | c1ccc(-c2nc3ccc(Oc4ccc5nc(-c6ccccn6)c(-c6ccccn6)nc5c4)cc3nc2-c2ccccn2)nc1 [CBK261964] | 99.6%
28 | CC(C)N(C(=O)c1ccccc1-c1cnn2cccnc12)C(C)C [CBK307701] | 85.4%
29 | CC1Cc2ccccc2N1C(=O)CSc1nnc2sc3ccccc3n12 (stereo not drawn) [CBK265398] | 94%
30 | O=C(CSc1cnn[nH]1)Nc1ccc(F)cc1 [CBK270024] | 89.6%
31 | CS(=O)(=O)c1ccc2nc(NC(=O)Cc3ccccc3)sc2c1 [CBK287339] | 89.8%
32 | COc1ccc(C(=O)NC(c2ccccc2Cl)c2cc(Cl)c3cccnc3c2O)cc1 (stereo not drawn) [CBK264036] | 88%
33 | CCn1c2ccccc2c2cc(/C=N/N3CCN(c4ccccc4OC)CC3)ccc21 [CBK101168] | 92.6%
34 | O=C(CSCc1c(Cl)cccc1Cl)NN1C(=O)c2ccccc2C1=O [CBK267800] | 101%
35 | CCN(CC)CCN1CCN(c2cc(-c3ccc(SC)cc3)ncn2)CC1 [CBK091203] | 93.3%
36 | COc1ccc2[nH]cc(CCNC(=O)N3CCCC(C(=O)O)C3)c2c1 (stereo not drawn) [CBK161351] | 108%
37 | CN1C(=O)COc2ccccc2CCCC[C@@H]2[C@H]1CCCN2C(=O)CCCn1cccn1 [CBK292090] | 111%
38 | CCCNCCc1ccc(NC(=O)NCCc2ccccc2)cc1 [CBK173873T] | 93.5%
39 | O=C(NCc1ccccc1)C(=O)NNC(=O)C12CC3CC(CC(C3)C1)C2 [CBK262951] | 94.9%
40 | CC(=O)N/C(=C/c1ccccc1)C(=O)NCCC(=O)O [CBK264046] | 87.2%
41 | Cc1ccc(CNC(=O)c2ccc(-n3ccnc3)c(-n3cccc3)c2)o1 [CBK284812] | 99.2%
42 | COc1ccc(NC(=O)c2cnc3sc(C)cn3c2=O)c(OC)c1 [CBK287712] | 87%
43 | CC(C)[C@@H](CO)n1c(=O)[nH]c2ncc(-c3cccc4cccnc34)nc21 [CBK064848] | 102%
44 | CC(NC(=O)CCn1c(C(F)F)cc2cccnc21)c1ccncc1 (stereo not drawn) [CBK285069] | 91.6%

Row | Compound | viability at 28.5 h, 10 µM
45 | COCCNc1nc(-c2ccccc2)ccc1C(=O)Nc1cccc(OC)c1 [CBK105886] | 98.1%
46 | Cc1ccc(C)c(OCC(=O)N(Cc2nc(-c3ccccc3)no2)C2CCCCC2)c1 [CBK269067] | 89.4%
47 | Cc1cc(O)ccc1Nc1cc(-c2ccc3c(c2)OCO3)ncn1 [CBK091053] | 92.6%
48 | Cn1cncc1C(=O)N1Cc2ccccc2C1 [CBK200329] | 106%
49 | O=C(Nc1ccc(Br)cc1)c1c(O)n2c3c(cccc3c1=O)CCC2 [CBK291207] | 103%
50 | N#Cc1cccc(NC(=O)c2cccs2)c1 [CBK066855] | 96.2%
51 | CCCCOc1ccc(NC(=O)NC(=O)C2CCN(CCc3ccc(Br)cc3)CC2)cc1 [CBK035096] | 91.5%
52 | Oc1c(Br)cc(Cl)cc1/C=N/Nc1nnc2c(n1)[nH]c1ccccc12 [CBK262041] | 114%
53 | Cc1cc(C)nc(N2CCC(CC(=O)NCc3ccccc3N3CCCC3)CC2)n1 [CBK286071] | 95.5%
54 | CCOc1ccc2[nH]c3c(c2c1)CN(C(=O)C1(C)CCCO1)CC3 (stereo not drawn) [CBK282659] | 86.2%
55 | CSc1nnc(CC2CCN(C(=O)Cn3nnnc3N)CC2)n1C [CBK306520] | 97.6%
56 | CON=Cc1c[nH]c2ccccc12 [CBK168628] | 93.7%
57 | COc1cccc(CN2CCCC(NC(=O)c3cnn(C(C)C)c3)C2)c1 (stereo not drawn) [CBK307477] | 91.3%
58 | Sc1nnc(-c2ccncc2)n1C1CCCCC1 [CBK288421] | 105%
59 | Cc1cc(Cn2nnc(-c3cccnc3)n2)cc(C)c1O [CBK291130] | 113%
60 | O=C(CC(CN1CCN(c2ccccn2)CC1)C(=O)O)NC1CCCCC1 (stereo not drawn) [CBK286812] | 87.7%
61 | Cc1c(C(C)N)cnn1-c1ccc(C#N)cc1 (stereo not drawn) [CBK305869] | 80.9%
62 | N=C(N)Nc1nc(-c2ccccc2)c2cc(F)ccc2n1 [CBK267350] | 82.7%
63 | CCN(CC)CCNC(=O)c1cc(O)nc2ccccc12 [CBK269261] | 99.6%
64 | Cc1cc(C)n(CC2CCCCN2C(=O)COc2cccnc2)n1 (stereo not drawn) [CBK304040] | 105%
65 | COc1ccc2[nH]cc(CC(=O)NCc3ccc(-c4csnn4)cc3)c2c1 [CBK149313] | 82.7%
66 | NC(=O)C1CCN(C(=O)CSc2nc3ccccc3o2)CC1 [CBK265930] | 97.8%

Row | Compound | viability at 28.5 h, 10 µM
67 | CN(Cc1ccccc1)c1nccnc1-c1ccsc1 [CBK037394] | 91%
68 | Cc1cc(C)n(CCCC(=O)N2CC3(CCNCC3)CC2C(=O)O)n1 (stereo not drawn) [CBK307174] | 89.5%
69 | O=C(O)c1sccc1NS(=O)(=O)Cc1ccccc1 [CBK004561] | 92.3%
70 | COc1ccccc1Cc1cccc(C2CCN(CC(=O)Nc3nccs3)CC2)n1 [CBK286227] | 95.1%
71 | COc1ccc(Oc2ncnc3c2oc2ccccc23)cc1 [CBK291224] | 86.4%
72 | COCC1CCCN1C(=O)c1cnn2c(C)c(Cc3ccccc3)c(C)nc12 (stereo not drawn) [CBK162213] | 93.9%
73 | CC(=O)Nc1ccc(S(=O)(=O)N2CCN(C(=O)COc3ccc(C)cc3)CC2)cc1 [CBK264268] | 91%
74 | O=C(c1ccc(F)cc1)N1C[C@@H](c2ccsc2)[C@@H]2CN(Cc3cccc(F)c3)CC[C@@H]21 [CBK285640] | 91.2%
75 | Cn1cc([C@@H]2CN(Cc3cccs3)C[C@H]2N)c2ccncc21 [CBK285320] | 98.9%
76 | C[S+]([O-])CCNC(=O)c1cc(-c2ccc(F)cc2)no1 (stereo not drawn) [CBK283251] | 89.6%
77 | N#Cc1cccc(C(=O)N2CCC(NC(=O)c3ccc(F)cc3)CC2)c1 [CBK305717] | 111%
78 | CCCSc1nnc(NC(=O)c2nc(SC)ncc2Cl)s1 [CBK268759] | 95.2%
79 | Cc1cc2c(s1)c1cnn(CC(=O)N3CCCCC3)c(=O)c1n2C [CBK284187] | 82.3%
80 | CN(/N=C\c1ccc([N+](=O)[O-])cc1)c1nc(-c2ccccc2)cc(-c2ccccc2)n1 [CBK261517] | 88.9%
81 | COc1cc(C(=O)N2CCC3(CC2)NC(=O)c2cc(C)ccc2O3)cc(OC)c1C [CBK166273] | 91%
82 | Cc1ccc(S(=O)(=O)Nc2ccc3c(ccn3CCC3CCN(C(=O)OC(C)(C)C)CC3)c2)cc1Cl [CBK172990] | 94.6%
83 | CC(=O)Nc1ccc(C(=O)N2CCC(c3cccc(Cc4ccccc4Cl)n3)CC2)cc1 [CBK286111] | 96.2%
84 | CCc1ccc(C(O)CNC2CCN(CC(F)F)CC2)cc1 (stereo not drawn) [CBK304144] | 109%
85 | Cc1occc1C(=O)Nc1cnn(CCCC(=O)O)c1 [CBK270116] | 89.4%
86 | Cc1ccc(C(=O)Nc2cc(C)nn2C)c(N2CCOCC2)n1 [CBK106221] | 104%
87 | O=C(N[C@H]1CCN2C(=O)c3cc(-c4cccs4)ccc3NC(=O)[C@H]12)c1cnccn1 [CBK289337] | 116%
